Results: PubChem BioAssay (NCI)
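The concentration for 50% growth inhibition is given as GI50. Definition used: TGI = concentration required for complete inhibition of growth.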

How the values were obtained:
Assay in all cases: DTP human tumour cell line panel, 384-well format
M14 melanoma = system: M14 melanoma
A549 NSCLC = system: A549 NSCLC
OVCAR-5 ovarian = system: OVCAR-5 ovarian
HCT-116 colon = system: HCT-116 colon
SR leukemia = system: SR leukemia
786-0 renal = system: 786-0 renal
EKVX NSCLC = system: EKVX NSCLC
MDA-MB-231 breast = system: MDA-MB-231 breast
MDA-MB-468 breast = system: MDA-MB-468 breast
MCF7 breast = system: MCF7 breast
MOLT-4 leukemia = system: MOLT-4 leukemia
UACC-62 melanoma = system: UACC-62 melanoma
KM12 colon = system: KM12 colon
HT29 colon = system: HT29 colon
SK-MEL-2 melanoma = system: SK-MEL-2 melanoma
U251 glioblastoma = system: U251 glioblastoma
LOX IMVI melanoma = system: LOX IMVI melanoma
HOP-92 NSCLC = system: HOP-92 NSCLC
HCC-2998 colon = system: HCC-2998 colon
RXF 393 renal = system: RXF 393 renal
HCT-15 colon = system: HCT-15 colon
T-47D breast = system: T-47D breast
SW-620 colon = system: SW-620 colon
DU-145 prostate = system: DU-145 prostate
HOP-62 NSCLC = system: HOP-62 NSCLC
UO-31 renal = system: UO-31 renal
A498 renal = system: A498 renal
PC-3 prostate = system: PC-3 prostate
IGROV1 ovarian = system: IGROV1 ovarian
NCI/ADR-RES ovarian = system: NCI/ADR-RES ovarian
NCI-H23 lung = system: NCI-H23 lung
MDA-MB-435 melanoma = system: MDA-MB-435 melanoma
SK-MEL-5 melanoma = system: SK-MEL-5 melanoma
TK-10 renal = system: TK-10 renal
BT-549 breast = system: BT-549 breast
MALME-3M melanoma = system: MALME-3M melanoma
RPMI-8226 leukemia = system: RPMI-8226 leukemia
K-562 leukemia = system: K-562 leukemia
OVCAR-3 ovarian = system: OVCAR-3 ovarian
SNB-19 CNS = system: SNB-19 CNS
CAKI-1 renal = system: CAKI-1 renal
NCI-H460 NSCLC = system: NCI-H460 NSCLC
OVCAR-4 ovarian = system: OVCAR-4 ovarian
OVCAR-8 ovarian = system: OVCAR-8 ovarian
ACHN renal = system: ACHN renal
HS 578T breast = system: HS 578T breast
CCRF-CEM leukemia = system: CCRF-CEM leukemia
SN12C renal = system: SN12C renal

Cn1c(Nc2ccc(C(F)(F)F)cc2)nc2cc(Oc3ccnc(-c4ncc(C(F)(F)F)[nH]4)c3)ccc21
GI50 (M14 melanoma): 0.0184 µM
TGI (M14 melanoma): 0.332 µM
GI50 (A549 NSCLC): 0.254 µM
TGI (A549 NSCLC): 12.4 µM
GI50 (OVCAR-5 ovarian): 1.43 µM
TGI (OVCAR-5 ovarian): 13.1 µM
GI50 (HCT-116 colon): 0.0625 µM
TGI (HCT-116 colon): 3.55 µM
GI50 (SR leukemia): 0.27 µM
TGI (SR leukemia): 2.11 µM
GI50 ([…]-0 renal): 0.615 µM
TGI (786-0 renal): 6.25 µM
GI50 (EKVX NSCLC): 0.983 µM
TGI (EKVX NSCLC): 4.91 µM
GI50 (MDA-MB-231 breast): 0.0367 µM
TGI (MDA-MB-231 breast): 1.8 µM
GI50 (MDA-MB-468 breast): 0.0741 µM
TGI (MDA-MB-468 breast): 0.825 µM
GI50 (MCF7 breast): 1.59 µM
TGI (MCF7 breast): 6.67 µM
GI50 (MOLT-4 leukemia): 0.0553 µM
TGI (MOLT-4 leukemia): 0.197 µM
GI50 (UACC-62 melanoma): 0.027 µM
TGI (UACC-62 melanoma): 0.462 µM
GI50 (KM12 colon): 0.734 µM
TGI (KM12 colon): 12.5 µM
GI50 (HT29 colon): 0.396 µM
TGI (HT29 colon): 13.7 µM
GI50 (SK-MEL-2 melanoma): 0.0238 µM
TGI (SK-MEL-2 melanoma): 0.101 µM
GI50 (U251 glioblastoma): 0.0979 µM
TGI (U251 glioblastoma): 12.7 µM
GI50 (LOX IMVI melanoma): 0.0547 µM
TGI (LOX IMVI melanoma): 1.54 µM
GI50 (HOP-92 NSCLC): 0.584 µM
TGI (HOP-92 NSCLC): 6 µM
GI50 (HCC-2998 colon): 0.0883 µM
TGI (HCC-2998 colon): 5.62 µM
GI50 (RXF 393 renal): 0.0159 µM
TGI (RXF 393 renal): 0.348 µM
GI50 (HCT-15 colon): 0.0537 µM
TGI (HCT-15 colon): 10.3 µM
GI50 (T-47D breast): 0.274 µM
TGI (T-47D breast): 9.06 µM
GI50 (SW-620 colon): 0.873 µM
TGI (SW-620 colon): 12.5 µM
GI50 (DU-145 prostate): 0.0352 µM
TGI (DU-145 prostate): 13.6 µM
GI50 (HOP-62 NSCLC): 0.608 µM
TGI (HOP-62 NSCLC): 11.4 µM
GI50 (UO-31 renal): 0.332 µM
TGI (UO-31 renal): 12.6 µM
TGI (A498 renal): 12.9 µM
GI50 (PC-3 prostate): 0.833 µM
TGI (PC-3 prostate): 12.3 µM
GI50 (IGROV1 ovarian): 0.041 µM
TGI (IGROV1 ovarian): 11.2 µM
GI50 (NCI/ADR-RES ovarian): 0.567 µM
TGI (NCI/ADR-RES ovarian): 2.84 µM
GI50 (NCI-H23 lung): 0.179 µM
TGI (NCI-H23 lung): 2.33 µM
GI50 (MDA-MB-435 melanoma): 0.0476 µM
TGI (MDA-MB-435 melanoma): 5.88 µM
GI50 (SK-MEL-5 melanoma): 0.0704 µM
TGI (SK-MEL-5 melanoma): 0.617 µM
GI50 (TK-10 renal): 0.0896 µM
TGI (TK-10 renal): 11.8 µM
GI50 (BT-549 breast): 0.182 µM
TGI (BT-549 breast): 11.3 µM
GI50 (MALME-3M melanoma): 0.0144 µM
TGI (MALME-3M melanoma): 0.0443 µM
GI50 (RPMI-8226 leukemia): 0.232 µM
TGI (RPMI-8226 leukemia): 2.09 µM
GI50 (K-562 leukemia): 0.63 µM
TGI (K-562 leukemia): 2.13 µM
GI50 (OVCAR-3 ovarian): 0.158 µM
TGI (OVCAR-3 ovarian): 2.46 µM
GI50 (SNB-19 CNS): 0.359 µM
TGI (SNB-19 CNS): 19.8 µM
GI50 (CAKI-1 renal): 0.0157 µM
TGI (CAKI-1 renal): 12.4 µM
GI50 (NCI-H460 NSCLC): 0.237 µM
TGI (NCI-H460 NSCLC): 10.3 µM
GI50 (OVCAR-4 ovarian): 0.454 µM
TGI (OVCAR-4 ovarian): 11.7 µM
GI50 (OVCAR-8 ovarian): 0.493 µM
TGI (OVCAR-8 ovarian): 10.6 µM
GI50 (ACHN renal): 0.0205 µM
TGI (ACHN renal): 11.3 µM
GI50 (HS 578T breast): 0.0391 µM
TGI (HS 578T breast): 6.25 µM
GI50 (CCRF-CEM leukemia): 0.231 µM
TGI (CCRF-CEM leukemia): 1.17 µM
GI50 (SN12C renal): 0.0464 µM
TGI (SN12C renal): 11.8 µM
